The record followed here is patent publication US20250049831A1, “ANTIVIRAL USE OF BISE[…], AND BISEPOXYLIGNAN COMPOSITION AND PREPARATION OF BISE[…]” (priority 2021, published 2025).

For one data set, the system named is Vero cells. Briefly: Drug cytotoxicity assay (MTT) on Vero cells. It counts as cell-based, African green monkey. The settings on record: 72 h, Probit regression. An excerpt: Vero cells were subcultured for 1-2 d to make them into flakes, and trypsinized in the presence of clear boundaries, strong three-dimensional sense and strong refractive power, until needle-like holes appeared on the cell surfaces; after the trypsinization solution was absorbed completely, a few milliliters of culture medium were taken to blow away the cells; the cells were counted, diluted to about 5×10^7/L with a culture medium (DMEM containing 10% fetal bovine serum), and then inoculated in a 96-well culture plate; and the cells grew into a monolayer.
Cytotoxicity test: the drugs were diluted at the concentrations shown in Table 3-1 for cytotoxicity assay.

The test system of the next data set is parainfluenza virus. Briefly: Effect of drug on virus-induced CPE (MTT, antiviral effective rate), parainfluenza virus in Vero cells. The class given is cell-based.
The subject of the next data set is COVID-19 virus. Briefly: In-vitro antiviral CPE test in Vero E6 cells, COVID-19 virus. As to conditions: Vero E6 cells, 100 TCID50, CPE after 3-4 days; unit not given (drug concentrations 250-15.62 μg/mL); in µg/mL. The class given is cell-based.
The subject of a further data set is influenza virus. Briefly: Effect of drug on virus-induced CPE (MTT, antiviral effective rate), influenza virus in Vero cells. The class given is cell-based.

Turning to `COc1ccc([C@H]2OC[C@H]3[C@@H]2CO[C@H]3c2ccc(O[C@@H]3O[C@H](CO)[C@@H](O)[C@H](O)[C@H]3O)c(OC)c2)cc1OC` [compound 2], in the data set on Vero cells, the “Maximum non-toxic concentration (TC0)” value stood at 0.0067 g/L and the “Median toxic concentration (TC50)” value was 560 µg/mL. The “Effective rate, ER %, Parainfluenza Virus” value in the data set with parainfluenza virus amounted to 94.43%. Besides, in the data set with COVID-19 virus, the “COVID-19 virus IC50” value is reported as 63.3. Further, in the data set with influenza virus, the “Effective rate, ER %, Influenza Virus” value was 85.94%.
With `COc1cc(O)cc(C2OCC3C(c4ccc(OC5OC(CO)C(O)C(O)C5O)c(OC)c4)OCC23)c1` (stereo not drawn) [compound 1], in the data set with Vero cells, the “Maximum non-toxic concentration (TC0)” value is recorded as 0.0067 g/L and the “Median toxic concentration (TC50)” value stood at 560 µg/mL. Besides, the “Effective rate, ER %, Parainfluenza Virus” value in the data set with parainfluenza virus amounted to 99.92%. In the data set with COVID-19 virus, the “COVID-19 virus IC50” value was 62.1. For the same compound, in the data set with influenza virus, the “Effective rate, ER %, Influenza Virus” value is recorded as 89.02%.
With `COc1ccc(C2OCC3C(c4ccc(OC)c(OC)c4)OCC23)cc1O` (stereo not drawn) [compound 3], in the data set on Vero cells, the “Maximum non-toxic concentration (TC0)” value was 0.012 g/L and the “Median toxic concentration (TC50)” value was 310 µg/mL. Moreover, in the data set with parainfluenza virus, the “Effective rate, ER %, Parainfluenza Virus” value amounted to 91.41%. Further, the “COVID-19 virus IC50” value in the data set with COVID-19 virus amounted to 166.5. Further, the “Effective rate, ER %, Influenza Virus” value in the data set with influenza virus was found to be 83.10%.
